Assay results taken from publication PMC5219908, “Expression, purification and kinetic characterization of recombinant benzoate dioxygenase from Rhodococcus ruber UKMP-5M” (Molecular Biology Research Communications, 2016).

System: T1, benzoate dioxygenase
T1 construct: gene benA; benA amplicon 642 bp (about 213 residues, much shorter than a usual BenA of about 450), His-tag from pET28b, E. coli BL21(DE3), ion exchange; primers encode start MELDRGPAG and end RDVPVYPF; no reductase or beta subunit added
Assay: NADH oxidation at […] nm, Lineweaver-Burk
Type: biochemical, Rhodococcus ruber
Details: 25 °C, 3 min; reduced nicotinamide cofactor (NADH; reagent list prints the phosphate form), FeSO4; substrate range printed as 0.1-1.2 mM, far above the Km; pH of kinetic assay not stated

Km: 5.58 µM
SMILES: O=C(O)c1ccccc1 [sodium benzoate]
